Columns and labels:
Type in all cases: cell-based
[1] = biological target: T1, von Hippel-Lindau disease tumor suppressor/GTPase KRas (Homo sapiens, UniProt P01116+P40337, G12D); assay: PROTAC activity at E3 ubiquitin ligase/N-terminal HiBit-tagged KRAS G12D mutant (unknown origin) in human GP5d cells assessed as induction of KRAS G12D protein degradation incubated for 18 hrs by Nano-Gio HiBiT assay
[2] = tested on: von Hippel-Lindau disease tumor suppressor/GTPase KRas (Homo sapiens), P01116+P40337 [G12D]; assay: PROTAC activity at E3 ubiquitin ligase/N-terminal HiBit-tagged KRAS G12D mutant (unknown origin) in human GP5d cells assessed as induction of KRAS G12D protein degradation incubated for 18 hrs by Nano-Gio HiBiT assay relative to control
[3] = tested on: von Hippel-Lindau disease tumor suppressor/GTPase KRas (Homo sapiens), P01116+P40337 [G12D]; assay: PROTAC activity at VHL/HiBit-tagged KRAS G12D mutant (unknown origin) in human GP5d cells assessed as induction of KRAS G12D protein degradation incubated for 18 hrs by Nano-Gio HiBiT assay relative control
[4] = biological target: T1, von Hippel-Lindau disease tumor suppressor/GTPase KRas; assay: PROTAC activity at VHL/N-terminal HiBit-tagged KRAS G12D mutant (unknown origin) in human GP5d cells assessed as induction of KRAS G12D protein degradation incubated for 18 hrs by Nano-Gio HiBiT assay

T1 sequence (P01116 whole entry G12D, stated change not applied): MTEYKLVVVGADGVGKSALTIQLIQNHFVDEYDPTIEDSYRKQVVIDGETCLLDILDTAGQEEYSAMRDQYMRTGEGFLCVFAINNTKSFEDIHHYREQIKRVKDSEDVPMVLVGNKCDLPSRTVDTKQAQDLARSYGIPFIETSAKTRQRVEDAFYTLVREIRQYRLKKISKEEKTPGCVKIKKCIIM
T1 sequence (P40337 whole entry, stated change not applied): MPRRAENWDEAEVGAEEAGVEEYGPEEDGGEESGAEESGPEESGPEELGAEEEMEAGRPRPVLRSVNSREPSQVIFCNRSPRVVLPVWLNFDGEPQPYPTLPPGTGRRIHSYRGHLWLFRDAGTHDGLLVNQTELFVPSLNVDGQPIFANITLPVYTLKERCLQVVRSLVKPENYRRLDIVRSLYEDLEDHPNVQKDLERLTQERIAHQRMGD
Sequence of von Hippel-Lindau disease tumor suppressor/GTPase KRas (Homo sapiens), P01116+P40337 [G12D] (P01116 whole entry G12D): as the sequence (P01116 whole entry G12D, stated change not applied) above
Sequence of von Hippel-Lindau disease tumor suppressor/GTPase KRas (Homo sapiens), P01116+P40337 [G12D] (P40337 whole entry partner): as the sequence (P40337 whole entry, stated change not applied) above

Structure (SMILES) | DC50 [1] | Emax [2] | Emax [3] | DC50 [4]
CC(C)C(C(=O)N1C[C@H](O)C[C@H]1C(=O)NCc1ccc(C#N)cc1)c1cc(OCCCCN2CCCN(c3nccc(-c4noc([C@@]5(C)CCCc6sc(N)c(C#N)c65)n4)n3)[C@@H](C)C2)no1 (single isomer, unassigned) | 3.9 nM | 91% | – | –
Cc1ncsc1-c1ccc([C@H](CO)NC(=O)[C@@H]2C[C@@H](O)CN2C(=O)[C@H](C(C)C)n2cc(OCCCC(C)N3CCCN(c4nccc(-c5noc([C@@]6(C)CCCc7sc(N)c(C#N)c76)n5)n4)[C@@H](C)C3)nn2)cc1 (single isomer, unassigned) | – | – | 94% | 1.4 nM
Cc1ncsc1-c1ccc([C@@H](NC(=O)[C@H]2C[C@H](O)CN2C(=O)[C@@H](C(C)C)n2cc(OCCCN3CCCN(c4nccc(-c5noc([C@@]6(C)CCCc7sc(N)c(C#N)c76)n5)n4)[C@@H](C)C3)nn2)[C@@H](O)C(C)C)cc1 | – | – | 93% | 1.2 nM
Cc1ncsc1-c1ccc(CNC(=O)[C@@H]2C[C@@H](O)CN2C(=O)C(c2cc(OCCCCN3CCCN(c4nccc(-c5cc([C@@]6(C)CCCc7sc(N)c(C#N)c76)no5)n4)[C@@H](C)C3)no2)C(C)C)cc1 (single isomer, unassigned) | – | – | 92% | 8.9 nM
Cc1ncsc1-c1ccc([C@H](C)NC(=O)[C@@H]2C[C@@H](O)CN2C(=O)C(C(C)C)n2cc(OCCCCN3CCCN(c4nccc(-c5noc([C@@]6(C)CCCc7sc(N)c(C#N)c76)n5)n4)[C@@H](C)C3)nn2)cc1 (single isomer, unassigned) | – | – | 93% | 1.5 nM
Cc1ncsc1-c1ccc(CNC(=O)[C@@H]2C[C@@H](O)CN2C(=O)C(c2cc(OCCCCN3CCCN(c4nccc(-c5noc([C@@]6(C)CCCc7sc(N)c(C#N)c76)n5)n4)[C@@H](C)C3)no2)C(C)C)cc1F (some centres undefined) | – | – | 92% | 6.5 nM
CC(C)C(C(=O)N1C[C@H](O)C[C@H]1C(=O)NCc1ccc(-n2ccnc2)cc1)c1cc(OCCCCN2CCCN(c3nccc(-c4noc([C@@]5(C)CCCc6sc(N)c(C#N)c65)n4)n3)[C@@H](C)C2)no1 (single isomer, unassigned) | 6.7 nM | 93% | – | –
Cc1ncsc1-c1ccc(CNC(=O)[C@@H]2C[C@@H](O)CN2C(=O)C(c2cc(OCCCCN3CCCN(c4nccc(-c5cc([C@@]6(C)CCCc7sc(N)c(C#N)c76)on5)n4)[C@@H](C)C3)no2)C(C)C)cc1 (some centres undefined) | – | – | 94% | 4.3 nM
CC(C)C(C(=O)N1C[C@H](O)C[C@H]1C(=O)NCc1ccc(-n2cncn2)cc1)c1cc(OCCCCN2CCCN(c3nccc(-c4noc([C@@]5(C)CCCc6sc(N)c(C#N)c65)n4)n3)[C@@H](C)C2)no1 (single isomer, unassigned) | 3.3 nM | 93% | – | –
Cc1ncsc1-c1ccc(CNC(=O)[C@@H]2C[C@@H](O)CN2C(=O)C(c2cc(OCCCCN3CCCN(c4nccc(-c5noc([C@@]6(C)CCCc7sc(N)c(C#N)c76)n5)n4)[C@@H](C)C3)no2)C(C)C)cc1 (some centres undefined) | – | – | 91% | 2.7 nM
Cc1ncsc1-c1ccc([C@H](NC(=O)[C@@H]2C[C@@H](O)CN2C(=O)[C@H](C(C)C)n2cc(OCCCCN3CCCN(c4nccc(-c5noc([C@@]6(C)CCCc7sc(N)c(C#N)c76)n5)n4)[C@@H](C)C3)nn2)[C@H](C)O)cc1 (single isomer, unassigned) | – | – | 94% | 1.6 nM
Cc1ncsc1-c1ccc(CNC(=O)[C@@H]2C[C@@H](O)CN2C(=O)C(c2cc(OCCCN3CCCN(c4nccc(-c5noc([C@@]6(C)CCCc7sc(N)c(C#N)c76)n5)n4)[C@@H](C)C3)no2)C(C)C)cc1 (some centres undefined) | – | – | 94% | 6.4 nM
